Results as given in the NIST ThermoML archive (doi:10.1021/je0340755).
± gives the expanded uncertainty stated by the source.

Assay: xn = mol fraction of the nth substance listed
Details: 101.3 kPa, Liquid; for viscosity: Capillary tube (Ostwald / Ubbelohde) method

CCC(O)CO (stereo not given) [1,2-butanediol] + O
Details	mass density [kg/m3]	speed of sound [m/s]	viscosity [mPa·s]
298.15 K, x2 = 0.0471	999.56 ± 0.35	1455.6 ± 12	54.4 ± 0.17
298.15 K, x2 = 0.1478	1001.36 ± 0.34	1480.8 ± 12	47.22 ± 0.22
298.15 K, x2 = 0.2481	1003.09 ± 0.33	1497.6 ± 12	39.78 ± 0.18
298.15 K, x2 = 0.3491	1005.12 ± 0.32	1517.2 ± 12	32.56 ± 0.15
298.15 K, x2 = 0.443	1007.55 ± 0.32	1545.9 ± 13	26.42 ± 0.13
298.15 K, x2 = 0.4971	1009.14 ± 0.32	1564.2 ± 13	23.17 ± 0.12
298.15 K, x2 = 0.5552	1010.88 ± 0.32	1581.1 ± 13	19.92 ± 0.1
298.15 K, x2 = 0.6494	1013.49 ± 0.31	1600.3 ± 13	15.11 ± 0.09
298.15 K, x2 = 0.7491	1015.73 ± 0.31	1622.2 ± 13	10.48 ± 0.078
298.15 K, x2 = 0.8547	1016.98 ± 0.31	1666.2 ± 13	5.959 ± 0.069
298.15 K, x2 = 0.9081	1015.65 ± 0.31	1670.6 ± 14	3.869 ± 0.066
298.15 K, x2 = 0.9144	1015.26 ± 0.3	1667.8 ± 13	3.635 ± 0.066
298.15 K, x2 = 0.9255	1014.39 ± 0.3	1660.6 ± 13	3.232 ± 0.065
298.15 K, x2 = 0.9353	1013.39 ± 0.3	1651 ± 13	2.885 ± 0.065
298.15 K, x2 = 0.9543	1010.65 ± 0.29	1623.1 ± 13	2.241 ± 0.064
298.15 K, x2 = 0.9562	1010.3 ± 0.29	1619.5 ± 13	2.179 ± 0.064
298.15 K, x2 = 0.9598	1009.61 ± 0.29	1612.5 ± 13	2.063 ± 0.064
298.15 K, x2 = 0.97	1007.33 ± 0.28	1589.6 ± 13	1.743 ± 0.064
298.15 K, x2 = 0.9806	1004.38 ± 0.27	1561 ± 13	1.425 ± 0.064
298.15 K, x2 = 0.9902	1001.1 ± 0.26	1531.6 ± 13	1.152 ± 0.063
298.15 K, x2 = 0.9923	1000.29 ± 0.26	1524.8 ± 12	1.095 ± 0.063
298.15 K, x2 = 0.9956	998.96 ± 0.26	1513.5 ± 12	1.006 ± 0.063
308.15 K, x2 = 0.0471	992.15 ± 0.36	1426 ± 12	28.67 ± 0.14
308.15 K, x2 = 0.1478	993.92 ± 0.35	1443.9 ± 12	25.18 ± 0.13
308.15 K, x2 = 0.2481	995.73 ± 0.33	1452.8 ± 12	21.61 ± 0.11
308.15 K, x2 = 0.3491	997.81 ± 0.31	1474 ± 12	18.1 ± 0.1
308.15 K, x2 = 0.443	1000.17 ± 0.3	1496.6 ± 12	15.04 ± 0.091
308.15 K, x2 = 0.4971	1001.68 ± 0.3	1508.1 ± 12	13.39 ± 0.086
308.15 K, x2 = 0.5552	1003.37 ± 0.29	1519.5 ± 12	11.69 ± 0.081
308.15 K, x2 = 0.6494	1006.11 ± 0.29	1542.9 ± 13	9.091 ± 0.075
308.15 K, x2 = 0.7491	1008.77 ± 0.29	1585.6 ± 13	6.504 ± 0.07
308.15 K, x2 = 0.8547	1010.49 ± 0.29	1640.7 ± 13	3.9 ± 0.066
308.15 K, x2 = 0.9081	1009.43 ± 0.29	1647.5 ± 13	2.651 ± 0.065
308.15 K, x2 = 0.9144	1009.1 ± 0.28	1645.9 ± 13	2.509 ± 0.064
308.15 K, x2 = 0.9255	1008.36 ± 0.28	1641.4 ± 13	2.26 ± 0.064
308.15 K, x2 = 0.9353	1007.51 ± 0.28	1635.3 ± 13	2.044 ± 0.064
308.15 K, x2 = 0.9543	1005.2 ± 0.27	1617.1 ± 13	1.635 ± 0.064
308.15 K, x2 = 0.9562	1004.91 ± 0.27	1614.7 ± 13	1.594 ± 0.064
308.15 K, x2 = 0.9598	1004.33 ± 0.27	1610 ± 13	1.519 ± 0.064
308.15 K, x2 = 0.97	1002.44 ± 0.26	1594.4 ± 13	1.308 ± 0.063
308.15 K, x2 = 0.9806	1000 ± 0.26	1574.5 ± 13	1.094 ± 0.063
308.15 K, x2 = 0.9902	997.32 ± 0.26	1552.8 ± 13	0.906 ± 0.063
308.15 K, x2 = 0.9923	996.67 ± 0.27	1547.5 ± 13	0.865 ± 0.063
308.15 K, x2 = 0.9956	995.58 ± 0.27	1538.9 ± 13	0.802 ± 0.063
318.15 K, x2 = 0.0471	984.63 ± 0.38	1396.5 ± 12	16.54 ± 0.1
318.15 K, x2 = 0.1478	986.4 ± 0.36	1415 ± 12	14.53 ± 0.092
318.15 K, x2 = 0.2481	988.13 ± 0.35	1422.4 ± 12	12.47 ± 0.085
318.15 K, x2 = 0.3491	990.15 ± 0.33	1441.3 ± 12	10.46 ± 0.079
318.15 K, x2 = 0.443	992.53 ± 0.32	1462.7 ± 12	8.706 ± 0.075
318.15 K, x2 = 0.4971	994.08 ± 0.31	1474.1 ± 12	7.758 ± 0.073
318.15 K, x2 = 0.5552	995.8 ± 0.3	1485.9 ± 12	6.789 ± 0.071
318.15 K, x2 = 0.6494	998.48 ± 0.28	1510 ± 12	5.314 ± 0.068
318.15 K, x2 = 0.7491	1001.03 ± 0.27	1553.8 ± 13	3.848 ± 0.066
318.15 K, x2 = 0.8547	1003.2 ± 0.27	1614.7 ± 13	2.378 ± 0.064
318.15 K, x2 = 0.9081	1003 ± 0.27	1630.6 ± 13	1.675 ± 0.064
318.15 K, x2 = 0.9144	1002.81 ± 0.27	1630.5 ± 13	1.595 ± 0.064
318.15 K, x2 = 0.9255	1002.34 ± 0.26	1629 ± 13	1.455 ± 0.064
318.15 K, x2 = 0.9353	1001.75 ± 0.26	1626 ± 13	1.334 ± 0.063
318.15 K, x2 = 0.9543	999.98 ± 0.26	1614.7 ± 13	1.105 ± 0.064
318.15 K, x2 = 0.9562	999.74 ± 0.26	1613.2 ± 13	1.083 ± 0.063
318.15 K, x2 = 0.9598	999.27 ± 0.26	1610 ± 13	1.041 ± 0.063
318.15 K, x2 = 0.97	997.69 ± 0.26	1599 ± 13	0.923 ± 0.063
318.15 K, x2 = 0.9806	995.59 ± 0.27	1584.6 ± 13	0.804 ± 0.063
318.15 K, x2 = 0.9902	993.21 ± 0.27	1568.4 ± 13	0.699 ± 0.063
318.15 K, x2 = 0.9923	992.62 ± 0.28	1564.4 ± 13	0.677 ± 0.063
318.15 K, x2 = 0.9956	991.63 ± 0.28	1557.9 ± 13	0.642 ± 0.063
328.15 K, x2 = 0.0471	976.76 ± 0.4	1381.6 ± 12	10.36 ± 0.081
328.15 K, x2 = 0.1478	978.45 ± 0.38	1392.6 ± 12	9.126 ± 0.077
328.15 K, x2 = 0.2481	980.12 ± 0.37	1404 ± 12	7.863 ± 0.074
328.15 K, x2 = 0.3491	982.09 ± 0.35	1421.6 ± 12	6.626 ± 0.071
328.15 K, x2 = 0.443	984.39 ± 0.34	1440 ± 12	5.547 ± 0.069
328.15 K, x2 = 0.4971	985.9 ± 0.33	1450.7 ± 12	4.962 ± 0.068
328.15 K, x2 = 0.5552	987.59 ± 0.32	1464.3 ± 12	4.363 ± 0.067
328.15 K, x2 = 0.6494	990.29 ± 0.3	1490.7 ± 12	3.447 ± 0.066
328.15 K, x2 = 0.7491	993 ± 0.29	1532.6 ± 13	2.533 ± 0.064
328.15 K, x2 = 0.8547	995.64 ± 0.27	1592.7 ± 13	1.615 ± 0.064
328.15 K, x2 = 0.9081	995.96 ± 0.27	1611.9 ± 13	1.177 ± 0.063
328.15 K, x2 = 0.9144	995.86 ± 0.27	1612.7 ± 13	1.127 ± 0.063
328.15 K, x2 = 0.9255	995.56 ± 0.27	1612.9 ± 13	1.04 ± 0.063
328.15 K, x2 = 0.9353	995.14 ± 0.27	1611.8 ± 13	0.964 ± 0.063
328.15 K, x2 = 0.9543	993.79 ± 0.27	1604.2 ± 13	0.821 ± 0.063
328.15 K, x2 = 0.9562	993.61 ± 0.27	1603.4 ± 13	0.807 ± 0.063
328.15 K, x2 = 0.9598	993.23 ± 0.28	1601.5 ± 13	0.781 ± 0.063
328.15 K, x2 = 0.97	991.96 ± 0.28	1594 ± 13	0.707 ± 0.063
328.15 K, x2 = 0.9806	990.23 ± 0.28	1583.2 ± 13	0.633 ± 0.063
328.15 K, x2 = 0.9902	988.23 ± 0.29	1571.2 ± 13	0.568 ± 0.063
328.15 K, x2 = 0.9923	987.73 ± 0.29	1568.9 ± 13	0.554 ± 0.063
328.15 K, x2 = 0.9956	986.9 ± 0.3	1563.4 ± 13	0.532 ± 0.063
338.15 K, x2 = 0.0471	968.75 ± 0.42	1365.8 ± 12	6.896 ± 0.072
338.15 K, x2 = 0.1478	970.35 ± 0.4	1376.1 ± 12	6.061 ± 0.07
338.15 K, x2 = 0.2481	971.96 ± 0.39	1387.3 ± 12	5.201 ± 0.069
338.15 K, x2 = 0.3491	973.85 ± 0.37	1402.7 ± 12	4.361 ± 0.067
338.15 K, x2 = 0.443	976.07 ± 0.36	1420.1 ± 12	3.638 ± 0.066
338.15 K, x2 = 0.4971	977.53 ± 0.35	1430.2 ± 12	3.251 ± 0.065
338.15 K, x2 = 0.5552	979.18 ± 0.34	1443.6 ± 12	2.859 ± 0.065
338.15 K, x2 = 0.6494	981.87 ± 0.33	1468.5 ± 12	2.268 ± 0.064
338.15 K, x2 = 0.7491	984.71 ± 0.31	1507.6 ± 12	1.689 ± 0.064
338.15 K, x2 = 0.8547	987.72 ± 0.3	1565.4 ± 13	1.114 ± 0.063
338.15 K, x2 = 0.9081	988.49 ± 0.29	1587.3 ± 13	0.843 ± 0.063
338.15 K, x2 = 0.9144	988.47 ± 0.29	1588.5 ± 13	0.812 ± 0.063
338.15 K, x2 = 0.9255	988.32 ± 0.29	1590.4 ± 13	0.759 ± 0.063
338.15 K, x2 = 0.9353	988.06 ± 0.29	1591 ± 13	0.713 ± 0.063
338.15 K, x2 = 0.9543	987.1 ± 0.29	1588.9 ± 13	0.626 ± 0.063
338.15 K, x2 = 0.9562	986.96 ± 0.3	1588.1 ± 13	0.618 ± 0.063
338.15 K, x2 = 0.9598	986.68 ± 0.3	1587.6 ± 13	0.602 ± 0.063
338.15 K, x2 = 0.97	985.68 ± 0.3	1583.6 ± 13	0.558 ± 0.063
338.15 K, x2 = 0.9806	984.29 ± 0.3	1577.1 ± 13	0.514 ± 0.063
338.15 K, x2 = 0.9902	982.66 ± 0.31	1570.2 ± 13	0.476 ± 0.063
338.15 K, x2 = 0.9923	982.25 ± 0.31	1568 ± 13	0.467 ± 0.063
338.15 K, x2 = 0.9956	981.55 ± 0.31	1564.9 ± 13	0.455 ± 0.063
